Values joined by “and” are separate entries in the source; they are usually repeats but may differ in a detail not shown here. Equal entries are not always repeated.
Assays:
[1] = test system: CHO cell line that expresses an antibody; test: Fed-batch experiment with the substances according to the invention (Example 2, Table 2); type: cell-based, Chinese hamster; design: Viabil.: concentration or dose not given beside the values
Description: (§1) Feed took place at regular intervals.

[2] = test system: CHO cell line that expresses an antibody; test: Batch experiment with the substances according to the invention (Example 1); type: cell-based, Chinese hamster; details: batch mode, substance 0.5-1 g/l, basal medium glucose 4.7 g/l, glutamine […]
Protocol: Cells were stored in the gas phase of liquid nitrogen. One to two ampoules were thawed in nutrient medium preheated to 37° C. and transferred to spinner bottles, shaking flasks or T-bottles. In the first few days of cultivation the medium was changed, depending on the clone.
Depending on the clone, cells were split either every second day or every third day or after two and three days alternately into new medium, i.e. a portion of the cell suspension was removed from culture and a smaller portion of the cell suspension was reused as inoculum for the next culture. This inoculum was made up with fresh prewarmed nutrient medium. Cells were incubated at 37° C. in an incubator with a CO2 atmosphere. An alternative for incubating cells was cultivation in an incubation chamber at 37° C., in this way cells were held in culture for several passages. A passage means a cultivation time of two to three days. At various points of time, cell suspension was taken from strain maintenance and used as inoculum for experiments. The experiments were carried out in various cultivation systems, for example in spinner bottles, T-bottles, shaking flasks, culture tubes or in controlled bioreactors.
as §1

## O=C([O-])/C=C/C(=O)[O-].[Na+].[Na+] [Sodium fumarate]
[1]; day 0, fed-batch
  Total Cell Density TCD: 1.5 E5/ml
  Viabil.: 91%
  Viable Cell Density (VCD): 1.37 E5/ml
[1]; day 2, fed-batch
  Total Cell Density TCD: 3.6 E5/ml
  Viabil.: 97%
  Viable Cell Density (VCD): 3.5 E5/ml
[1]; day 5, fed-batch
  Total Cell Density TCD: 13.9 E5/ml and 13.2 E5/ml
  Viabil.: 96% and 97%
  Viable Cell Density (VCD): 13.4 E5/ml and 12.8 E5/ml
[1]; day 8, fed-batch
  Total Cell Density TCD: 43.9 E5/ml and 43.8 E5/ml
  Viabil.: 92%
  Viable Cell Density (VCD): 40.3 E5/ml and 40.2 E5/ml
[2]; day 0
  Gln: 1.53 mM
  Glucose: 4.69 g/L
  Lactate: 0 g/L
  NH4: 1.22 mM
  Specific Glutamin consumption (Gln/VCD): 1.49
  Specific ammonia production (NH4/VCD): 1.18
  Specific glucose consumption (Gluc/VCD): 4.55
  Specific lactate production (Lac/VCD): 0.00
  Total Cell Density TCD: 1.07 E5/ml
  Viabil.: 96%
  Viable Cell Density (VCD): 1.03 E5/ml
[2]; day 3
  Gln: 0.72 mM
  Glucose: 3.98 g/L
  Lactate: 0.85 g/L
  NH4: 1.84 mM
  Specific Glutamin consumption (Gln/VCD): 0.10
  Specific ammonia production (NH4/VCD): 0.26
  Specific glucose consumption (Gluc/VCD): 0.57
  Specific lactate production (Lac/VCD): 0.12
  Total Cell Density TCD: 7.1 E5/ml
  Viabil.: 99%
  Viable Cell Density (VCD): 7 E5/ml
[2]; day 6
  Gln: 0.24 mM
  Glucose: 2.61 g/L
  Lactate: 1.19 g/L
  NH4: 2.49 mM
  Specific Glutamin consumption (Gln/VCD): 0.01
  Specific ammonia production (NH4/VCD): 0.06
  Specific glucose consumption (Gluc/VCD): 0.06
  Specific lactate production (Lac/VCD): 0.03
  Total Cell Density TCD: 41.5 E5/ml
  Viabil.: 98%
  Viable Cell Density (VCD): 40.6 E5/ml
[2]; day 8
  Gln: 0.37 mM
  Glucose: 1.68 g/L
  Lactate: 1.08 g/L
  NH4: 2.58 mM
  Specific Glutamin consumption (Gln/VCD): 0.02
  Specific ammonia production (NH4/VCD): 0.14
  Specific glucose consumption (Gluc/VCD): 0.09
  Specific lactate production (Lac/VCD): 0.06
  Total Cell Density TCD: 22.3 E5/ml
  Viabil.: 86%
  Viable Cell Density (VCD): 19.1 E5/ml
[2]; day 11
  Gln: 0.47 mM
  Glucose: 0.46 g/L
  Lactate: 1.46 g/L
  NH4: 3.06 mM
  Specific Glutamin consumption (Gln/VCD): 0.03
  Specific ammonia production (NH4/VCD): 0.21
  Specific glucose consumption (Gluc/VCD): 0.03
  Specific lactate production (Lac/VCD): 0.10
  Total Cell Density TCD: 26.2 E5/ml
  Viabil.: 55%
  Viable Cell Density (VCD): 14.3 E5/ml

## CC(=O)C(=O)[O-].[Na+] [Sodium pyruvate]
[1]; day 0, fed-batch
  Total Cell Density TCD: 1.5 E5/ml
  Viabil.: 91%
  Viable Cell Density (VCD): 1.37 E5/ml
[1]; day 2, fed-batch
  Total Cell Density TCD: 3.2 E5/ml
  Viabil.: 97%
  Viable Cell Density (VCD): 3.1 E5/ml
[1]; day 5, fed-batch
  Total Cell Density TCD: 13.7 E5/ml
  Viabil.: 99%
  Viable Cell Density (VCD): 13.5 E5/ml
[1]; day 8, fed-batch
  Total Cell Density TCD: 46 E5/ml
  Viabil.: 90%
  Viable Cell Density (VCD): 41.5 E5/ml
[2]; day 0
  Gln: 1.53 mM
  Glucose: 4.69 g/L
  Lactate: 0 g/L
  NH4: 1.22 mM
  Specific Glutamin consumption (Gln/VCD): 1.49
  Specific ammonia production (NH4/VCD): 1.18
  Specific glucose consumption (Gluc/VCD): 4.55
  Specific lactate production (Lac/VCD): 0.00
  Total Cell Density TCD: 1.07 E5/ml
  Viabil.: 96%
  Viable Cell Density (VCD): 1.03 E5/ml
[2]; day 3
  Gln: 1.02 mM
  Glucose: 4.55 g/L
  Lactate: 0.38 g/L
  NH4: 1.72 mM
  Specific Glutamin consumption (Gln/VCD): 0.13
  Specific ammonia production (NH4/VCD): 0.22
  Specific glucose consumption (Gluc/VCD): 0.59
  Specific lactate production (Lac/VCD): 0.05
  Total Cell Density TCD: 7.8 E5/ml
  Viabil.: 99%
  Viable Cell Density (VCD): 7.7 E5/ml
[2]; day 6
  Gln: 0.25 mM
  Glucose: 2.81 g/L
  Lactate: 1.32 g/L
  NH4: 1.91 mM
  Specific Glutamin consumption (Gln/VCD): 0.01
  Specific ammonia production (NH4/VCD): 0.04
  Specific glucose consumption (Gluc/VCD): 0.06
  Specific lactate production (Lac/VCD): 0.03
  Total Cell Density TCD: 45 E5/ml
  Viabil.: 98%
  Viable Cell Density (VCD): 44 E5/ml
[2]; day 8
  Gln: 0.38 mM
  Glucose: 1.79 g/L
  Lactate: 1.34 g/L
  NH4: 2.23 mM
  Specific Glutamin consumption (Gln/VCD): 0.02
  Specific ammonia production (NH4/VCD): 0.10
  Specific glucose consumption (Gluc/VCD): 0.08
  Specific lactate production (Lac/VCD): 0.06
  Total Cell Density TCD: 24.5 E5/ml
  Viabil.: 88%
  Viable Cell Density (VCD): 21.6 E5/ml
[2]; day 11
  Gln: 0.49 mM
  Glucose: 0.63 g/L
  Lactate: 1.93 g/L
  NH4: 3.06 mM
  Specific Glutamin consumption (Gln/VCD): 0.05
  Specific ammonia production (NH4/VCD): 0.30
  Specific glucose consumption (Gluc/VCD): 0.06
  Specific lactate production (Lac/VCD): 0.19
  Total Cell Density TCD: 24.2 E5/ml
  Viabil.: 43%
  Viable Cell Density (VCD): 10.3 E5/ml

Source: US8426202B2, “Cell culture medium” (Cellca GmbH, priority 2005, dated 2013)
